Series [1] is described as follows: Crystal form stability test (affecting factors). The conditions noted are these: for Crystal form stability (in words): after a 10-day affecting factor test. The class given is physicochemical. The procedure:
The experimental method was as follows: a ground sample (100 mg) was filled in a groove of a glass plate, the plane of the sample was made to the same level as the glass surface by using a glass slide, the sample was placed in a PANalytical X-ray powder diffractometer, and a 40 kV and 40 mA copper X-ray source was used, with a scanning range of 3-45° (2θ) and a scanning rate of 8°/min. The scanning error is typically ±0.2 degrees (2θ).

The conditions of series [2]: background statement; cited from earlier work.
Series [3] in a line: Chemical stability test (affecting factors, HPLC purity). It is filed as physicochemical. The conditions noted are these: for Chemical stability (in words): after a 10-day affecting factor test. An excerpt:
For the specific method for testing the stability, reference could be made to high performance liquid chromatography in General Chapter 0512, Chinese Pharmacopoeia, Volume IV, 2015 Edition.

Series [4] can be described thus: Preparation stability of crystal forms (mixing and slurrying, X-RPD). The class given is physicochemical. As to conditions: for Converted crystal form: 0.1 g mixed with 0.1 g crystal form A of Example 2, slurried in acetone/water at room temperature for 10 h. The protocol: The mixing and slurring method was as follows: 0.1 g of each of the two crystal forms to be mixed was weighed and added into a single-necked flask. 2 mL of acetone and 1 mL of water were added. The mixture was stirred and slurried at room temperature for 10 h, filtered, and dried in air at room temperature to obtain crystals. The crystal forms were determined by X-RPD.

The nature of series [5]: Solubility comparison of crystals. The class given is physicochemical. The conditions noted are these: for Solubility in 95% ethanol / Solubility in aqueous solution with pH = 1 / solubility at 20 min: 25° C., dissolution time 20 min; for Solubility compared with crystal form 2 and crystal form 4: 95% ethanol and aqueous solution with pH=1; for solubility at 20 min: thermodynamic from solid. The protocol: • Dissolution temperature: 25° C. • Dissolution time: 20 min

A short description of series [6]: Crushing, static electricity and fluidity test. The class given is physicochemical. The conditions noted are these: for Static electricity: reference forms: after crushing. An excerpt:
(§1) The determination results are as follows.

Series [7] is described as follows: Crystal microscopic morphology by scanning electron microscope. The class given is physicochemical.
From the text: The experimental method was as follows: an appropriate amount of test sample was taken, uniformly spread on a conductive adhesive tape, sprayed with gold, and observed under an electron microscope.
as §1

Setting [8] is: High humidity condition 90% RH, 10 days.
[9] abbreviates: High temperature condition 60° C., 10 days.
Setting [10] is: Light condition 5000 lux/h, 10 days.

≈ marks a conversion by molar mass, not a printed value. Like-named read-outs stand apart in the source and are kept apart here.

Take `CN1CCN(c2ccc(C(=O)Nc3n[nH]c4ccc(Cc5cc(F)cc(F)c5)cc34)c(NC3CCOCC3)c2)CC1` [Crystal form 1 of Reference Example 1, entrectinib]: the Crystal form found result in series [1] (0 day) is given as “form 1”; in series [1] (setting [8]), “form 1”; in series [1] (setting [9]) it was “form 2”; in series [1] (setting [10]) it was “form 1”. Further, the “Crystal form stability (in words)” value in series [1] (listed as crystal form 1 in Reference Example 1) is “unstable and shows crystal form conversion under a high temperature condition”; in series [2] it was “unstable and is easy to be converted into another crystal form”. For the same compound, the “Purity (%)” value is 99.21% in series [3] (0 day), 99.20% in series [3] (setting [8]), 99.20% in series [3] (setting [9]) and 99.19% in series [3] (setting [10]).

Regarding `CN1CCN(c2ccc(C(=O)Nc3n[nH]c4ccc(Cc5cc(F)cc(F)c5)cc34)c(NC3CCOCC3)c2)CC1` [Crystal form 2 of Reference Example 2, entrectinib], the Crystal form found result in series [1] (0 day), in series [1] (setting [8]), in series [1] (setting [9]) and in series [1] (setting [10]) was “form 2” in each case. In series [4], the Converted crystal form entry is reported as “Crystal form A”. In addition, in series [5], the “Solubility in 95% ethanol” value worked out at 21.1 mg/mL (≈ 37.6 mM). Besides, in series [5], the “Solubility in aqueous solution with pH = 1” value (shortened to “Solubility … with pH = 1”) worked out at 19.1 mg/mL. Further, the “Solubility (in words)” value in series [2] was “poor solubility”. Besides, the Fluidity entry in series [6] was “crushing, and poor fluidity”; in series [6] (listed as crystal form 2), “poor fluidity”. Moreover, the Static electricity result in series [6] was “relatively strong static electricity after”; in series [6] (listed as crystal form 2) it was “relatively strong static electricity after being crushed”. For the same compound, the “electron microscopy results of the crystal: length of larger crystals/particles” value in series [7] is recorded as “about 85 μm”. The “electron microscopy results of the crystal: shape and size uniformity” value in series [7] is reported as “Sheet-shaped, fragile, non-uniform”. Besides, the “Purity (%)” value in series [3] (0 day) was determined as 99.34%; in series [3] (setting [8]) it was 99.33%; in series [3] (setting [9]) it was 99.34%; in series [3] (setting [10]) it was 99.33%.

For the compound `CN1CCN(c2ccc(C(=O)Nc3n[nH]c4ccc(Cc5cc(F)cc(F)c5)cc34)c(NC3CCOCC3)c2)CC1` [Crystal form 4 of Reference Example 3, entrectinib], the Crystal form found entry in series [1] (0 day), in series [1] (setting [8]), in series [1] (setting [9]) and in series [1] (setting [10]) was “form 4” throughout. The Converted crystal form result in series [4] is reported as “Crystal form A”. In addition, the “Solubility in 95% ethanol” value in series [5] was 20.5 mg/mL (≈ 36.6 mM). Also, the “Solubility … with pH = 1” value in series [5] is on record as 18.8 mg/mL. Besides, the “Purity (%)” value in series [3] (0 day) is listed as 99.29%; in series [3] (setting [8]) it was 99.29%; in series [3] (setting [9]) it was 99.28%; in series [3] (setting [10]), 99.28%.

As for `CN1CCN(c2ccc(C(=O)Nc3n[nH]c4ccc(Cc5cc(F)cc(F)c5)cc34)c(NC3CCOCC3)c2)CC1` [Crystal form A of Example 2, N-[5-(3,5-difluorobenzyl)-1H-indazol-3-yl]-4-(4-methylpiperazin-1-yl)-2-[(tetrahydro-2H-pyran-4-yl)amino]benzamide], the Crystal form found entry in series [1] (0 day), in series [1] (setting [8]), in series [1] (setting [9]) and in series [1] (setting [10]) was “form A” each time. In series [1], the “Crystal form stability (in words)” value is on record as “good crystal form stability”. The “Crystal conversion in acetone/water slurry (in words)” value in series [4] (acetone/water system, room temperature, 10 h) is “will not be subjected to crystal conversion”. Also, the “Solubility compared with crystal form 2 and crystal form 4” value in series [5] is given as “better solubility”. The solubility at 20 min is 28.4 mg/mL (≈ 50.7 mM) in series [5] (95% ethanol, 25 °C, organic solvent or mixture, read-out: Solubility in 95% ethanol) and 22.6 mg/mL (≈ 40.3 mM) in series [5] (aqueous solution with pH 1, 25 °C, pH 1, simulated gastric fluid, read-out: Solubility in aqueous solution with pH = 1). The Fluidity result in series [6] and in series [6] (listed as crystal form A) was “good fluidity” throughout. The “electron microscopy results of the crystal: length of larger crystals/particles” value in series [7] was ~20 μm. Further, in series [7], the “electron microscopy results of the crystal: shape and size uniformity” value was “Rod-shaped, relatively uniform size,”. The “Purity (%)” value in series [3] (0 day) is 99.92%; in series [3] (setting [8]), 99.92%; in series [3] (setting [9]) it was 99.91%; in series [3] (setting [10]), 99.91%. In addition, the “Chemical stability (in words)” value in series [3] is “good chemical stability”.

As to `CN1CCN(c2ccc(C(=O)Nc3n[nH]c4ccc(Cc5cc(F)cc(F)c5)cc34)c(NC3CCOCC3)c2)CC1` [Crystal form AZT-A of Reference Example 4] [entrectinib], in series [4], the Converted crystal form entry is “Crystal form A”. In series [6], the Fluidity entry is recorded as “poor fluidity” and the Static electricity result is recorded as “strong static electricity after crushing, and”. Also, in series [6] (listed as crystal form AZT-A), the Fluidity result was “poor fluidity” and the Static electricity entry is “relatively strong static electricity after being crushed”. Besides, in series [7], the “electron microscopy results of the crystal: length of larger crystals/particles” value is recorded as “about 700 μm”; the “electron microscopy results of the crystal: shape and size uniformity” value is recorded as “Irregular bulk-shaped, non-uniform”.

Regarding `CN1CCN(c2ccc(C(=O)Nc3n[nH]c4ccc(Cc5cc(F)cc(F)c5)cc34)c(NC3CCOCC3)c2)CC1` [Crystal form AZT-B of Reference Example 5] [entrectinib], in series [4], the Converted crystal form entry is reported as “Crystal form A”. Further, in series [6], the Fluidity entry was “poor fluidity” and the Static electricity entry is listed as “strong static electricity after crushing, and”. In addition, in series [6] (listed as crystal form AZT-B), the Fluidity result is “poor fluidity” and the Static electricity result is “relatively strong static electricity after being crushed”. Further, in series [7], the “electron microscopy results of the crystal: length of larger crystals/particles” value is reported as “more than about 1000 μm”; the “electron microscopy results of the crystal: shape and size uniformity” value is recorded as “Irregular bulk-shaped, non-uniform”.

Consider `CN1CCN(c2ccc(C(=O)Nc3n[nH]c4ccc(Cc5cc(F)cc(F)c5)cc34)c(NC3CCOCC3)c2)CC1` [Crystal form AZT-E of Reference Example 6] [entrectinib], for which the Converted crystal form result in series [4] is on record as “Crystal form A”. Besides, in series [6], the Fluidity entry was “poor fluidity” and the Static electricity result is listed as “strong static electricity after crushing, and”. Further, in series [6] (listed as crystal form AZT-E), the Fluidity entry is “poor fluidity” and the Static electricity entry was “relatively strong static electricity after being crushed”. For the same compound, in series [7], the “electron microscopy results of the crystal: length of larger crystals/particles” value is on record as “more than about 1000 μm”; the “electron microscopy results of the crystal: shape and size uniformity” value was “Irregular bulk-shaped, non-uniform”.

For `CN1CCN(c2ccc(C(=O)Nc3n[nH]c4ccc(Cc5cc(F)cc(F)c5)cc34)c(NC3CCOCC3)c2)CC1` [Crystal form B of Example 5, N-[5-(3,5-difluorobenzyl)-1H-indazol-3-yl]-4-(4-methylpiperazin-1-yl)-2-[(tetrahydro-2H-pyran-4-yl)amino]benzamide], the Crystal form found result in series [1] (0 day), in series [1] (setting [8]), in series [1] (setting [9]) and in series [1] (setting [10]) was “form B” in each case. Moreover, the “Crystal form stability (in words)” value in series [1] is recorded as “good crystal form stability”. Also, in series [5], the “Solubility in 95% ethanol” value turned out to be 26.2 mg/mL (≈ 46.7 mM). The “Solubility … with pH = 1” value in series [5] was 21.0 mg/mL. Further, in series [5], the “Solubility compared with crystal form 2 and crystal form 4” value is reported as “better solubility”. Also, the Fluidity result in series [6] and in series [6] (listed as crystal form B) was “good fluidity” each time. Besides, in series [7], the “electron microscopy results of the crystal: length of larger crystals/particles” value is ~10 μm. Besides, the “electron microscopy results of the crystal: shape and size uniformity” value in series [7] is “Rod-shaped, relatively uniform size,”. In addition, the “Purity (%)” value in series [3] (0 day) is 99.91%; in series [3] (setting [8]) it was 99.90%; in series [3] (setting [9]) it was 99.91%; in series [3] (setting [10]) it was 99.91%. In addition, in series [3], the “Chemical stability (in words)” value is on record as “good chemical stability”.

As usually defined, the solubility is the dissolved amount per volume that the medium holds.
